US20060172964A1, “Methods for reducing amyloid beta levels” (priority 2005, published 2006)

Key:
Format in all cases: cell-based, human
[1] = test system: APP-FL, APP-C99 and APP-C83; test: Western blot analysis of APP processing in H4-APP-FL cells; conditions: for protein levels of APP-FL / increase in the ratio of APP-C99 to APP-FL / increase in the ratio of APP-C83 to APP-FL: siRNA 48 hours, DAPT 250 nM
Method: (§1) We employed naïve H4 human neuroglioma (H4) cells and H4 cells stably-transfected to express either the APP-FL, or APP-C99. Peptide APP-C99 is the product of β-secretase, which, therefore, contains α- and γ-, but not β-cleavage sites. This cell line provides a valid system to assess whether any effects on APP processing is dependent on γ-secretase-mediated APP processing and independent of β-secretase-mediated APP processing. All cell lines were cultured in DMEM (high glucose) containing 9% heat-inactivated fetal calf serum, 100 units/ml penicillin, 100 μg/ml streptomycin, and 2 mM L-glutamine. Stably transfected H4 cells were additionally supplemented with 200 μg/ml G418.
Small interfering RNA (siRNA) duplexes were designed and obtained from Dharmacon Research, Inc. (Lafayette, CO 80026) against human APBA1, the gene encoding X11α (5′-GGATGCTCAGCTGATTGCA-3′; SEQ ID NO:2), APBA2, the gene encoding X11β (5′-GGTGAAGCTCAACATTGTC-3′; SEQ ID NO:3). Scrambled siRNA (5′-[…]-3α; SEQ ID NO:4) (29) was used as the control siRNA. siRNAs were transfected into cells by using electroporation (AMAXA, Gaithersburg, Md.). We mixed 1 million cells, 100 μl AMAXA electroporation transfection solution and 10 μl 20 μM siRNA together, then we employed C-9 program in the AMAXA electroporation device for the cell transfection. The transfected cells then were placed in one of the six-well plate containing 1.5 ml cell culture media. The cells were harvested 48 hours after siRNA treatments. DAPT (250 nM, 18 hours treatment time), a γ-secretase inhibitor, was employed in the experiments as a positive control.
(§2) Cell pellets were detergent-extracted on ice using immunoprecipitation buffer (10 mM Tris-HCl, pH 7.4, 150 mM NaCl, 2 mM EDTA, 0.5% Nonidet P-40) plus protease inhibitors (1 μg/ml aprotinin, 1 μg/ml leupeptin, 1 μg/ml pepstatin A). The lysates were collected, centrifuged at 12,000 rpm for 10 min, and quantified for total proteins by the BCA protein assay kit (Pierce, Rockford, Ill.).
Western blot analysis was performed as described by Xie et al. (30). Briefly, 40 μg of total protein of each sample was subjected to SDS-polyacrylamide gel electrophoresis using 4-20% gradient Tris/glycine gels under reducing conditions (Invitrogen, Carlsbad, Calif.). Next, proteins were transferred to a polyvinylidene difluoride membrane (Bio-Rad, Hercules, Calif.) using a semi-dry electrotransfer system (Amersham Biosciences, San Francisco, Calif.). Nonspecific proteins were blocked using 5% non-fat dry milk in TBST for 1.5 h. Blots were then incubated with a primary antibody, followed by a secondary antibody (horseradish peroxidase-conjugated anti-rabbit antibody 1:10,000; Pierce, Rockford, Ill.). Blots were washed with 1× TBST for 30 min between steps. Antibody H-265 (1:200, Santa Cruz Biotechnology, Santa Cruz, Calif.) was used to recognize X11α (105 kDa), antibody N-20 (1:100, Santa Cruz Biotechnology, Santa Cruz, Calif.) was used to detect X11β (135 kDa). Antibody A8717 (1:1,000, Sigma, St. Louis, Mo.) was used to visualize APP-FL (110 kDa), […] in the Western blot analysis. The intensity of signals was analyzed using an image program (NIH Image 1.62). We quantified the Western blots as follows. We used the levels of β-actin to normalize the levels of X11α, X11β, APP-FL and APP-CTF (i.e., determining the ratio of X11α amount to β-actin amount) to control for loading differences in total protein amounts. We present the changes in the protein levels of X11α, X11β, APP-FL, APP-C99 and APP-C83 in the cells treated with APBA1 or APBA2 siRNA as the percentage of those in the cells treated with control siRNA.
We next assessed the effects of RNAi-mediated silencing of APBA1 on APP processing in H4-APP-FL cells by measuring protein levels of APP-FL, APP-C99 and APP-C83 following APBA1 siRNA treatment. […]

Aβ40 [2] = test: Sandwich ELISA of secreted Aβ in conditioned media of H4-APP-FL cells
Method: as §1
Small interfering RNA (siRNA) duplexes were designed and obtained from Dharmacon Research, Inc. (Lafayette, CO 80026) against human APBA1, the gene encoding X11α (5′-GGATGCTCAGCTGATTGCA-3′; SEQ ID NO:2), APBA2, the gene encoding X11β (5′-GGTGAAGCTCAACATTGTC-3′; SEQ ID NO:3). Scrambled siRNA (5′-[…]-3α; SEQ ID NO:4) (29) was used as the control siRNA. siRNAs were transfected into cells by using electroporation (AMAXA, Gaithersburg, Md.). […]
(§3) Following the treatment with saline, electroporation, control siRNA, APBA1 siRNA or APBA2 siRNA, conditioned media was collected, and secreted Aβ was measured by a Sandwich ELISA assay as described by Xie et al. (30). […] Plates were then developed with TMB reagent and well absorbance measured at 450 nm. Aβ levels in test samples were determined by comparison with signal from unconditioned media spiked with known quantities of Aβ40 and Aβ42.
Next, we measured Aβ levels in the conditioned media, 48 hours after treatment with control siRNA, APBA1 siRNA or γ-secretase inhibitor DAPT. Since Aβ42 was too low to be detected in many samples, we only present the changes in Aβ40 production from these experiments.
Next, we measured Aβ levels in the conditioned media 48 hours following treatments with control siRNA, APBA2 siRNA or γ-secretase inhibitor DAPT.

[3] = test system: APP-FL, APP-C99 and APP-C83; test: Western blot analysis of APP processing in H4-APP-C99 cells; conditions: data not shown
Method: as §1, with “G418. […]” for “G418.”
as §2
Western blot analysis was performed as described by Xie et al. (30). […] The intensity of signals was analyzed using an image program (NIH Image 1.62). We quantified the Western blots as follows. […]
We next assessed the effects of RNAi-mediated silencing of APBA1 on processing of APP-C99. […]

Aβ40 [4] = test: Sandwich ELISA of secreted Aβ in conditioned media of H4-APP-C99 cells; conditions: data not shown
Method: as §1, with “G418. […]” for “G418.”
as §3
We next measured Aβ levels in the conditioned media 48 hours after treatment with either control siRNA or APBA1 siRNA in the H4-APP-C99 cells. […]

C[C@H](NC(=O)Cc1cc(F)cc(F)c1)C(=O)N[C@H](C(=O)OC(C)(C)C)c1ccccc1 [DAPT]
protein levels of APP-FL ([1]; APBA1 experiment (FIG. 1A), vs control siRNA): no significant differences
protein levels of APP-FL ([1]; APBA2 experiment (FIG. 2A), vs control siRNA): no significant difference
increase in the ratio of APP-C99 to APP-FL ([1]; APBA2 experiment, FIG. 2C, vs control treatment): 270%
increase in the ratio of APP-C83 to APP-FL ([1]; APBA2 experiment, FIG. 2D, vs control treatment): 245%
increase in the ratio of APP-C99 to APP-FL ([1]; FIG. 1C, vs control siRNA, normalized to β-actin): 310%
increase in the ratio of APP-C83 to APP-FL ([1]; FIG. 1D, vs control siRNA, normalized to β-actin): 250%
Aβ levels (Aβ40) in conditioned media (Aβ40 [2]; FIG. 1E, 48 hours after treatment, control siRNA treatment 116 pg/ml): 70 pg/mL
Aβ production (Aβ40) in conditioned media (Aβ40 [2]; FIG. 2E, 48 hours following treatment, control siRNA 109 pg/ml): 48 pg/mL

control siRNA: Scrambled siRNA (5′-AAATGTGTGTACGTCTCCTCC-3; SEQ ID NO:4) used as the control siRNA (listed as DNA, chemistry not given here)
effect on APP processing as compared to saline treatment ([1]; data not shown): did not affect APP processing or alter Aβ levels
effect on Aβ levels as compared to saline treatment (Aβ40 [2]; data not shown): did not affect APP processing or alter Aβ levels
effect on APP processing as compared to saline treatment [3]: did not affect APP processing or alter Aβ levels
effect on Aβ levels as compared to saline treatment (Aβ40 [4]): did not affect APP processing or alter Aβ levels
